Data on three compounds can be found in patent US20020198160A1, “Compositions and methods for enhancing the bioavailability of pharmaceutical agents” (priority 2001, published 2002).

For data set [1], the target named is T1, P-glycoprotein (Homo sapiens, UniProt P08183). Kind of data set: Vinblastine transepithelial bi-directional transport across Caco-2 cell monolayers with or without P-glycoprotein inhibitors. Conditions: Run 2, vinblastine 5 μM, inhibitor 10 μM.
Protocol: (§1) The cells were grown and maintained in DMEM (Dulbecco's modified eagle's medium, purchased from Gibco/BRL, Grand Island, N.Y.) supplemented with 10% fetal bovine serum and 2 mM L-glutamine.
(§2) Cell cultures were maintained, antibiotic free, in a 37° C. incubator with 90% relative humidity in an atmosphere of 5% CO2. The cells were maintained in 10 cm^2 stock plates and seeded onto polycarbonate Transwell™ HTS filter inserts at 4×10^5 cells/mL. The cells were cultured on the filters for about 27-30 days. Caco-2 cells having passages between 40 and 110 were used for the studies.
(§3) The integrity of the cell monolayers was determined by measuring the paracellular transepithelial transport of the integrity marker, Lucifer yellow, which is commercially available from Sigma Chemical of St. Louis, Mo.
(§4) The transport of vinblastine, which is the pharmaceutically active agent in these studies, was allowed to proceed for 120 minutes at 37° C. Stock concentrations (C0) of each of the P-glycoprotein inhibitors were treated similarly as dosed cells and were retained and sampled for starting dose. Aliquots for both the AP and the BL sides of the cell monolayers were taken at 2 hours, and such aliquots were analyzed by liquid scintillation counting (LSC) using a Packard Liquid Scintillation Counting machine. Calculation of the apparent permeability was done by using the following Artusson equation: [formula]
(§5) where dQ/dT is the flux rate (μg/sec), C0 is concentration of the starting material at t=0 (μg/mL), and A=the area of the monolayer (cm^2). For the triplicate wells the P(app) is the mean of the three individual P(app) values for each well.
For data set [2], the target named is T1, P-glycoprotein. The data set can be described thus: in vitro. Conditions: Caco-2.
Protocol: as §1, §2, §3, §4, §5
Data set [3] has as its target T1, P-glycoprotein. Kind of data set: in vitro. Conditions: Caco-2, pH 7.4.
Protocol: as §1, §2, §3
(§6) Stock concentrations (C0) of each of the P-glycoprotein inhibitors were treated similarly as dosed cells and were retained and sampled for starting dose. Aliquots for both the AP and the BL sides of the cell monolayers were taken at 2 hours, and such aliquots were analyzed by LSC Calculation of the apparent permeability by using the Artusson equation shown above. For the triplicate wells the P(app) is the mean of the three individual P(app) values for each well.
In data set [4] the test system is H460/T800 cells (which over express P-glycoprotein). Kind of data set: Reduction of the IC50 of paclitaxel in paclitaxel resistant H460/T800 cells on adding lopinavir. In kind it is cell-based.
The test system of data set [5] is HCT15 cells (which express P-glycoprotein). The data set can be described thus: Efflux of radiolabelled lopinavir, ritonavir and paclitaxel from HCT15 cells. In kind it is cell-based. The following applies: 1 μM loaded for 1 hour, FIG. 1. The method, then: The medium was aspirated and the cells were washed with PBS (phosphate buffered saline, available from Life Technologies, Rockvile, Md.). At harvest, the cells were washed once with PBS and the pellets were dissolved in 550 μl of 1N NaOH. The total protein was determined by Bio-Rad assay (available from Bio-Rad of Hercules, Ca.) and the total radioactivity was determined by LSC. Following normalization of the protein amount, cpm/μg protein for each time point was compared to the peak drug time 0.

The test system is the same in data set [6]. The data set can be described thus: Decrease of the IC50 of paclitaxel in HCT15 cells on adding a P-glycoprotein inhibitor. In kind it is cell-based. The following applies: lopinavir 5 μM added to paclitaxel.
Data set [7] concerns the target T1, P-glycoprotein.
Protocol: as §1, §2, §3, §6
Where [8] appears, read: 120 minutes at 37° C., mean ± SD of triplicate wells.
The mark [9] stands for this setting: Table 2B (printed Run 1), Caco-2, lopinavir or ritonavir 5 μM, CyA 10 μM, 120 minutes at 37° C., mean ± SD of triplicate wells.

SMILES strings stand for the structures. Read-outs that look alike come from different tables or passages of the source.

Broadly, the Papp A→B is how fast a substance crosses the layer from the apical side. For orientation: Papp B→A means how fast a substance crosses the layer from the basolateral side. As a reminder, the efflux ratio is the permeability from basolateral to apical divided by that in the opposite direction, in the common usage.

T1 sequence (P08183 whole entry): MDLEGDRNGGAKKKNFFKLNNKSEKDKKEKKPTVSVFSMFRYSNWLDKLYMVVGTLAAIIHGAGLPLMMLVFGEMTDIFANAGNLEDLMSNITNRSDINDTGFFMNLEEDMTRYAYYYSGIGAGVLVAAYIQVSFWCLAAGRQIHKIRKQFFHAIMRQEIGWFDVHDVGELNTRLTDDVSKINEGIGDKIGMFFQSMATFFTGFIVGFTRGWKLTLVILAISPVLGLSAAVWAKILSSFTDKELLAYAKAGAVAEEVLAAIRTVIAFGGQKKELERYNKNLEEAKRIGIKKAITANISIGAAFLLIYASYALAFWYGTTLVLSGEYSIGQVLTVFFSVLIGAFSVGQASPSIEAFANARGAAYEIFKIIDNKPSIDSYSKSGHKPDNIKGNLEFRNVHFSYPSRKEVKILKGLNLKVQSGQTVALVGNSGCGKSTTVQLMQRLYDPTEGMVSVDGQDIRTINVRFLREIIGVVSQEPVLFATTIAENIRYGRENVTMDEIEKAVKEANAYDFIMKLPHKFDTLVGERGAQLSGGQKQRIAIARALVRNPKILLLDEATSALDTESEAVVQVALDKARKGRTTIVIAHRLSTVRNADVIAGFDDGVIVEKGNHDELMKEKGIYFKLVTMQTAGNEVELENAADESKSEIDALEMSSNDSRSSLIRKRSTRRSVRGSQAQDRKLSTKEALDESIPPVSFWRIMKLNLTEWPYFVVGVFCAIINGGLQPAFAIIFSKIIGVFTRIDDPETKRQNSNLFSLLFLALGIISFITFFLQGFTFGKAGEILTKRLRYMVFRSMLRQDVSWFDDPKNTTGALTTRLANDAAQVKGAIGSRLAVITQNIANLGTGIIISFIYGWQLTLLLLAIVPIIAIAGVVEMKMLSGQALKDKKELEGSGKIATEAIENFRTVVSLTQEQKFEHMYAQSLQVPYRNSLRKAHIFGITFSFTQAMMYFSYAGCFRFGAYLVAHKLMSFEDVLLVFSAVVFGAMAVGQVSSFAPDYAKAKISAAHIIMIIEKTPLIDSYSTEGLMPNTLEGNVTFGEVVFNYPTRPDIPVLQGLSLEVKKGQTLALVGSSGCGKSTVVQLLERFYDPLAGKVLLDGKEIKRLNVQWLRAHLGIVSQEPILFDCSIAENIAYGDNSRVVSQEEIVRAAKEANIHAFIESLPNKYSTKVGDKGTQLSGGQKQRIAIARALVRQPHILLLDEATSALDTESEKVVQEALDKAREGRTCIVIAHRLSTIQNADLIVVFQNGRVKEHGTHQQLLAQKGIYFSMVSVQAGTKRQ

With `CC[C@]1(O)C[C@@H]2CN(CCc3c([nH]c4ccccc34)[C@@](C(=O)OC)(c3cc4c(cc3OC)N(C)[C@H]3[C@@](O)(C(=O)OC)[C@H](OC(C)=O)[C@]5(CC)C=CCN6CC[C@]43[C@@H]65)C2)C1` [Vinblastine, vinblastine], in data set [1], the “Ratio (BL-AP/AP-BL)” value stood at 30.02. Further, in data set [1] (setting [8]), the “P(app) AP-BL” value was 0.49 ± 0.00 1 × 10(−6) cm/sec and the “P(app) BL-AP” value is listed as 14.71 ± 3.33 1 × 10(−6) cm/sec. Further, in data set [2], the apical-to-basolateral permeability (Papp A→B) at 120 min, 5 μM stood at 0.91 ± 0.07 ×10⁻⁶ cm/s; the Papp B→A at 120 min, 5 μM amounted to 17.7 ± 0.39 ×10⁻⁶ cm/s; the efflux ratio at 120 min, 5 μM is 19.5.
On to `Cc1cccc(C)c1OCC(=O)N[C@@H](Cc1ccccc1)[C@@H](O)C[C@H](Cc1ccccc1)NC(=O)[C@H](C(C)C)N1CCCNC1=O` (relative stereo) [Lopinavir, [1S-[1R*,(R*),3R*,4R*]]-N-[4-[[(2,6-dimethylphenoxy)acetyl]amino]-3-hydroxy-5-phenyl-1-(phenylmethyl)pentyl]tetrahydro-alpha-(1-methylethyl)-2-oxo-(2H)-pyrimidine acetamide], for which, in data set [3], the Papp A→B at 120 min, 5 μM came to 10.7 ± 0.58 ×10⁻⁶ cm/s and the Papp B→A at 120 min, 5 μM is 9.55 ± 2.1 ×10⁻⁶ cm/s. Besides, the “reduction of the IC50 of paclitaxel” value in data set [4] (lopinavir 5 μM with paclitaxel) is 11 fold. For the same compound, the “reduction of the IC50 of paclitaxel” value in data set [4] (lopinavir 10 μM with paclitaxel) is reported as 21 fold. Besides, in data set [5] (after 60 minutes), the “compound remained in the HCT15 cells” value is listed as “approximately 80%”. Besides, the “decrease in the IC50 of paclitaxel” value in data set [6] worked out at 9 fold. For the same compound, the “substrate for P-glycoprotein (conclusion from Tables 2A and 2B)” value in data set [7] (Caco-2 bi-directional permeability with or without cyclosporin A) is “not a substrate for P-glycoprotein”. Further, in data set [7] (setting [9]), the “P(app) AP-BL” value was 18.72 ± 1.04 1 × 10(−6) cm/sec and the “P(app) BL-AP” value is 17.42 ± 4.37 1 × 10(−6) cm/sec.
On to `CC(C)c1nc(CN(C)C(=O)N[C@H](C(=O)N[C@@H](Cc2ccccc2)C[C@H](O)[C@H](Cc2ccccc2)NC(=O)OCc2cncs2)C(C)C)cs1` (relative stereo) [Ritonavir, [5S-(5R*,8R*,10R*,11R*)]-10-hydroxy-2-methyl-5-(1-methylethyl)-1-[2-(1-methylethyl)-4-thiazolyl]-3,6-dioxo-8,11-bis(phenylmethyl)-2,4,7,12-tetraazatridecan-13-oic acid, 5-thiazolylmethyl ester], for which, in data set [5] (in 15 minutes), the “elimination (efflux) by the HCT15 cells” value was “rapidly eliminated”.
